Data set [1] concerns the target T1, LasB (Pseudomonas aeruginosa, UniProt Q02RJ6).
T1 construct: The purification of LasB from P. aeruginosa P14 supernatant and the; made in house; host or cells: P. aeruginosa PA14 (native producer), culture supernatant
The data set is described as follows: biochemical. The data set is classed as biochemical. On the procedure: LasB Inhibition Assay. […]
(§1) Preparation of P. aeruginosa supernatant and LasB activity evaluation. A culture of a single colony of PA14 was grown in lysogeny broth medium at 28 °C with constant shaking at 130 rpm for 3 days. Then, the culture was centrifuged at 4 °C, 5000 rpm for 30 minutes. Finally, the supernatant was passed through a membrane filter of […] to sterilize it. The supernatant

For another data set, the system named is P. aeruginosa PA14. The data set can be described thus: Minimum inhibitory concentration (MIC) assay. The data set is classed as cell-based, Pseudomonas aeruginosa.
A further data set addresses T2, MMP-1 (Homo sapiens, UniProt P03956).
T2 sequence (P03956 100-469): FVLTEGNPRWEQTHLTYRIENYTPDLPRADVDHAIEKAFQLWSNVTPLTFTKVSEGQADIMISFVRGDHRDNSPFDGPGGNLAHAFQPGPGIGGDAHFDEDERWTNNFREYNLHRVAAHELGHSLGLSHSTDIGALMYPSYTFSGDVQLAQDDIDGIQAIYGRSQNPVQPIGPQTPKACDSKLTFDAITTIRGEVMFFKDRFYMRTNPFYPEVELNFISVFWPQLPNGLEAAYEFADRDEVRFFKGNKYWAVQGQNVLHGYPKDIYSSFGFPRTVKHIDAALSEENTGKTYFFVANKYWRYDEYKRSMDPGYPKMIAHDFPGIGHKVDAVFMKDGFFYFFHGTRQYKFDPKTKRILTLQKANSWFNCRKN
The data set is described as follows: Inhibition assay with human off-target MMP-1. The format is biochemical. The settings on record: Table S2; concentration not given.

A further data set addresses T3, MMP-2 (Homo sapiens, UniProt P08253).
T3 sequence (P08253 110-660): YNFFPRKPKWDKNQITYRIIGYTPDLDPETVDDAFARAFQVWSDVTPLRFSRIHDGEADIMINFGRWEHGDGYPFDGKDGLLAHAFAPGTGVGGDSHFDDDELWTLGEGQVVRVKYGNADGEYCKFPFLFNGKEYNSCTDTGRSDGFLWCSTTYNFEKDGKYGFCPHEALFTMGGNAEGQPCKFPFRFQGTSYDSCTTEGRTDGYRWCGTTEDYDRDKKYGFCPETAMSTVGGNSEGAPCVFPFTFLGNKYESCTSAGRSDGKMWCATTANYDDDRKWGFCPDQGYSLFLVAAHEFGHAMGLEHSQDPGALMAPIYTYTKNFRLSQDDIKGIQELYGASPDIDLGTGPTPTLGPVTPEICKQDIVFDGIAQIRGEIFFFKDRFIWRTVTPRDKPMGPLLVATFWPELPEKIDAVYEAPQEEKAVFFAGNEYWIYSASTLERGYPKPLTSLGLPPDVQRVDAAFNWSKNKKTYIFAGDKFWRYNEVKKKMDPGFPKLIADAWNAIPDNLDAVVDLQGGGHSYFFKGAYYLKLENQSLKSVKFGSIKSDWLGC
The data set can be described thus: Inhibition assay with human off-target MMP-2. The settings on record: Table S2; concentration not given. The data set is classed as biochemical.

For another data set, the target named is MMP-3 (Homo sapiens, UniProt P08254). The data set can be described thus: Inhibition assay with human off-target MMP-3. The data set is classed as biochemical. The settings on record: Table S2; concentration not given.
Sequence of MMP-3 (P08254 100-477): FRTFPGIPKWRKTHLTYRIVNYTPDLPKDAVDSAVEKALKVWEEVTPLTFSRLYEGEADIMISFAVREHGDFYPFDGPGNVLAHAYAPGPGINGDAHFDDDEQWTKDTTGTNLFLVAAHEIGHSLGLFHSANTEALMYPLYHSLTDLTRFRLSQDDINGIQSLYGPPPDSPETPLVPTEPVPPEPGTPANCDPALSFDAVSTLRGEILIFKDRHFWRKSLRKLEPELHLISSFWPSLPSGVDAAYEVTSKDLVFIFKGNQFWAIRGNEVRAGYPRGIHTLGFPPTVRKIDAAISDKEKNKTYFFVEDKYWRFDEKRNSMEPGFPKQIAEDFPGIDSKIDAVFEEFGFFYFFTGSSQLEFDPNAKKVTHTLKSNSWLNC
The target in a further data set is T4, MMP-7 (Homo sapiens, UniProt P09237).
T4 sequence (P09237 95-267): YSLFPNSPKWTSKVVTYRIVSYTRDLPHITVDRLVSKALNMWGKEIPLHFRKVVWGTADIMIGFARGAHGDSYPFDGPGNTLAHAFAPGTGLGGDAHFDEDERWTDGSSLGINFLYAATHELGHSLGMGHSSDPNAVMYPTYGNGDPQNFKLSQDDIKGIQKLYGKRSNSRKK
The data set is described as follows: Inhibition assay with human off-target MMP-7. The data set is classed as biochemical. The settings on record: Table S2; concentration not given.

A further data set concerns the target MMP-8 (Homo sapiens, UniProt P22894). The data set is described as follows: Inhibition assay with human off-target MMP-8. The data set is classed as biochemical. The settings on record: Table S2; concentration not given.
In the next data set the target is MMP-14 (Homo sapiens, UniProt P50281). The data set is described as follows: Inhibition assay with human off-target MMP-14. The format is biochemical. The settings on record: Table S2; concentration not given.
A further data set addresses HDAC-3 (Homo sapiens, UniProt O15379). The data set is described as follows: Inhibition assay with human off-target HDAC-3. The data set is classed as biochemical. The settings on record: Table S2.
Another data set has as its target T5, HDAC-8 (Homo sapiens, UniProt Q9BY41).
T5 sequence (Q9BY41 1-377): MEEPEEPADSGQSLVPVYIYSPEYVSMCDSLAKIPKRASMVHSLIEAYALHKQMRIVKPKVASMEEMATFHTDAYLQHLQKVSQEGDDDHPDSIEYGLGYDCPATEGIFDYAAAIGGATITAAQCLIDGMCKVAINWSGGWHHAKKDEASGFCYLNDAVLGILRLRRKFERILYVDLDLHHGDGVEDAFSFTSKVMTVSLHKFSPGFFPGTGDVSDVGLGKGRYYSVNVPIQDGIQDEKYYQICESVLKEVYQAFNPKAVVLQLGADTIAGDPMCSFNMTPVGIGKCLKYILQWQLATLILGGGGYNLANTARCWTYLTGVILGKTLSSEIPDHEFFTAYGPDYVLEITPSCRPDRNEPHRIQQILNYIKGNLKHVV
The data set can be described thus: Inhibition assay with human off-target HDAC-8. The data set is classed as biochemical. The settings on record: Table S2.

A further data set is described as follows: Cytotoxicity assay, A549. The settings on record: human, A549 cells.
A short description of data set [2]: Cytotoxicity assay, HepG2. The settings on record: human, HepG2 cells.
Data set [3] is described as follows: Cytotoxicity assay, HEK 293. The settings on record: human, HEK 293 cells.
The target of another data set is ADAM17 (Homo sapiens, UniProt P78536). The data set can be described thus: Inhibition assay with human off-target ADAM17 (TACE). The data set is classed as biochemical.
Sequence of ADAM17 (P78536 215-824): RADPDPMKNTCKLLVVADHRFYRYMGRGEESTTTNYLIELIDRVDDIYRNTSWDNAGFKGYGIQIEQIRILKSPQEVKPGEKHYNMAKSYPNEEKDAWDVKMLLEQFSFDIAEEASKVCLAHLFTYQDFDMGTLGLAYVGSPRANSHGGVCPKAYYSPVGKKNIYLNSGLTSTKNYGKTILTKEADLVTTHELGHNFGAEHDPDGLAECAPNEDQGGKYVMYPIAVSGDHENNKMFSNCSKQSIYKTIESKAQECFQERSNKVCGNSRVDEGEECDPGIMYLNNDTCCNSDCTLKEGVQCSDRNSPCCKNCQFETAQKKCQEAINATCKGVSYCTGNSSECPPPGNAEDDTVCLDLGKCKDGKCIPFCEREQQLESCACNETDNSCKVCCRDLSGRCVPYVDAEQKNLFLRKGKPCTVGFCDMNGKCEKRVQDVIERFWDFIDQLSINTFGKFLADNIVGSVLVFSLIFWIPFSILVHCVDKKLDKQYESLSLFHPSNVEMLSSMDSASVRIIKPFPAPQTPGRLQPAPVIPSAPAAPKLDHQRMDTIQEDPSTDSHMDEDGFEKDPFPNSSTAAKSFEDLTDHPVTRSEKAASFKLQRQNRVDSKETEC
Data set [4] has as its system Galleria mellonella larvae. The data set can be described thus: Galleria mellonella larvae survival model with P. aeruginosa PA14 supernatant. The format is in vivo. The settings on record: for survival of larvae: 0.25 nmol compound injected with PA14 supernatant, three days of incubation, compared to PBS injected larvae; for survival of larvae, compound in PBS: compound in PBS without PA14 supernatant. On the procedure:
We next analyzed the antivirulence activity of LasB inhibitors in vivo, using a simple model based on G. mellonella larvae. […] We injected the larvae with the supernatant (s.n.) of P. aeruginosa PA14 with or without 0.25 nmol of either 4 or 7 g, incubated them for three days and recorded the survival once per day (Figure 3). […] Treatment of larvae with 0.25 nmol of compound 7 g increased survival up to 60% compared to PBS injected larvae.
PA14 s.n. was also present during compound treatment. PBS served as a negative control (dot dash). […]
as §1

For data set [5], the target named is T1, LasB. The data set is described as follows: Calculation of Ligand Efficiency (LE) and Lipophilic Ligand Efficiency (LLE). The settings on record: calculated. The source says:
Although structure‐guided exploration of the N‐aryl ring substitution provided us with a strong starting point for lead optimization, systematic variation of the substituent in the α‐position (R^1) should be considered to exploit the lipophilicity of the S2′ pocket. In addition, compound 7 g only occupies a small fraction (approx. 24%) of the total predicted binding pocket volume, leaving the S2′ pocket largely untouched (Figure S4). Therefore, extension of the thiol group in that direction should allow additional ligand‐protein interactions, leading to a further improved inhibitory potency. […]

Data set [6] addresses T1, LasB. The settings on record: read-out: IC50 (known LasB inhibitors); Figure 1, known LasB inhibitors; cited from earlier work.
Data set [7] is described as follows: in vitro. The settings on record: human.
The nature of data set [8]: in vitro. The settings on record: human. This is another data set of the same source.
A short description of data set [9]: in vitro. The settings on record: human. This is another data set of the same source.
The test system of data set [10] is human hepatoma cell line (HepG2). The data set is described as follows: Cytotoxicity assay, HepG2. The settings on record: HepG2, at 100 µM.
Data set [11] relates to human embryonic kidney (HEK) 293 cells. The data set is described as follows: Cytotoxicity assay, HEK 293. The settings on record: HEK cells, at 100 µM.

Read-outs that look alike come from different tables or passages of the source. A value given as a limit tells only on which side of the number the result lay.

T1 sequence (Q02RJ6 198-498): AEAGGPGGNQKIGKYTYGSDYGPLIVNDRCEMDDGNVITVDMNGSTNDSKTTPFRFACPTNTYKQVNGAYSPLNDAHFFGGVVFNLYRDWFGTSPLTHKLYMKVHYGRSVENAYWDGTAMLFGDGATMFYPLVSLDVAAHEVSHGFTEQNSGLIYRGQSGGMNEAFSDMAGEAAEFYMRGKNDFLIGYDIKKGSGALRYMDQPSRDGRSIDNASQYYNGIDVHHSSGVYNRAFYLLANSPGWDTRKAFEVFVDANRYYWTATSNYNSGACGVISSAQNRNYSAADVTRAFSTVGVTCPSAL
Sequence of MMP-8 (P22894 101-467): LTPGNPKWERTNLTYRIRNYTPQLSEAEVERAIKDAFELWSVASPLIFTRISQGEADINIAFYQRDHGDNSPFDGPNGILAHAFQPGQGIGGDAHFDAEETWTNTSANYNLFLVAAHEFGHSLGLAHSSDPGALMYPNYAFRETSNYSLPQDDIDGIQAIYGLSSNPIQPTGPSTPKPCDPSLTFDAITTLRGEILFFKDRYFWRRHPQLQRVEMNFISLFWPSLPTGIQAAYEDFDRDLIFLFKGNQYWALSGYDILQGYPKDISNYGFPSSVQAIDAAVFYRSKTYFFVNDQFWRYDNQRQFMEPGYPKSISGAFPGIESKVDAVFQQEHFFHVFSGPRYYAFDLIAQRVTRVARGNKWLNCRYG
Sequence of HDAC-3 (O15379 whole entry): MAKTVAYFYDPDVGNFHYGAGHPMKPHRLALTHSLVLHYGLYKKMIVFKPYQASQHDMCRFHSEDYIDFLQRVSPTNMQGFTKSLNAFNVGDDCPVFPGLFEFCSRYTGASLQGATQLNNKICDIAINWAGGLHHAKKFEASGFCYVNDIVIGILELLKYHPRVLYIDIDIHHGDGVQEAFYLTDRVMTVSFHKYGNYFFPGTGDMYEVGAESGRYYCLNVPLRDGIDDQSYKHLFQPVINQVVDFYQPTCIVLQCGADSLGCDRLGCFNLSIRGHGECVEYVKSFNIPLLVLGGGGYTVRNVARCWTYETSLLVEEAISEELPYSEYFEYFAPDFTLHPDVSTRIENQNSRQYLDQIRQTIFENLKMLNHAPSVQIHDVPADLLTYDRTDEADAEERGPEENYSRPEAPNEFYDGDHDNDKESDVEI
Sequence of HDAC-3 (Q9Y618 395-489 partner limits assumed): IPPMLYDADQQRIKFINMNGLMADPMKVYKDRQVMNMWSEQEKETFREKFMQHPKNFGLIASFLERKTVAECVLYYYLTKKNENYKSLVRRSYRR

In turn, `O=C(Nc1ccc(Cl)c(Cl)c1)C(S)CC1CCCCC1` (stereo not shown) [7 b] returned an IC50 against LasB [1] of 12 ± 3 µM.

Regarding `O=C(Nc1ccc(Cl)c(Cl)c1)C(S)CC1CC1` (stereo not shown) [7 c], the IC50 against LasB [1] is 6.3 ± 1.2 µM.

Regarding `O=C(Nc1ccccc1)C(S)Cc1ccccc1` (stereo not shown) [7 d], at LasB [1] (versus compound 7 a), the “fold improvement in IC50 value compared to 7 a” value is “two‐fold”. Also, the MIC against P. aeruginosa PA14 and with P. aeruginosa PA14 (Pseudomonas aeruginosa) was over 100 µM in each case. The “inhibition of MMP-1” value against MMP-1 was “n.i. (n.i. = <10% inhibition)”. The “inhibition of MMP-2” value on MMP-2 was “n.i. (n.i. = <10% inhibition)”. For the same compound, the “inhibition of MMP-3” value on MMP-3 was “n.i. (n.i. = <10% inhibition)”. Besides, at MMP-7, the “inhibition of MMP-7” value is recorded as “n.i. (n.i. = <10% inhibition)”. The “inhibition of MMP-8” value against MMP-8 is 26 ± 4%. Besides, the “inhibition of MMP-14” value against MMP-14 is “n.i. (n.i. = <10% inhibition)”. Besides, the IC50 at HDAC-3 was over 100 µM; at HDAC-8 it was over 100 µM; in “Cytotoxicity assay, A549”, over 100 µM; in [2], over 100 µM; in data set [3], over 100 µM.

As for `Cc1ccccc1NC(=O)C(S)Cc1ccccc1` (stereo not shown) [7 e], the half-inhibitory concentration (IC50) on LasB [1] worked out at 2.4 ± 1 µM.

Take `Cc1cccc(NC(=O)C(S)Cc2ccccc2)c1` (stereo not shown) [7 f]: half-maximal inhibition against LasB [1] (IC50) was put at 1 ± 0.4 µM.

Consider `Cc1ccc(NC(=O)C(S)Cc2ccccc2)cc1` (stereo not shown) [7 g], for which the IC50 on LasB [1] is 0.48 ± 0.04 µM; at ADAM17 (Table S2, read-out: IC50 ADAM17), 4.8 ± 1.5 µM; in the data set “Cytotoxicity assay, A549”, over 100 µM; in data set [2], over 100 µM; in data set [3], over 100 µM. This compound came in with an MIC in the data set with P. aeruginosa PA14 (Pseudomonas aeruginosa) of over 100 µM. The survival of larvae result in [4] is reported as “up to 60%”. Besides, the “survival of larvae, compound in PBS” value in data set [4] is 100%. In addition, the “Ligand Efficiency (LE)” value on LasB [5] is recorded as 0.43. The “Lipophilic Ligand Efficiency (LLE)” value at LasB [5] was 2.37.

On to `CC(C)C[C@H](NP(=O)(O)O[C@@H]1O[C@@H](C)[C@H](O)[C@@H](O)[C@H]1O)C(=O)N[C@@H](Cc1c[nH]c2ccccc12)C(=O)O` [Compound 1, phosphoramidon], for which the IC50 on LasB [6] was 0.207 µM.

`O=C(CS)Nc1ccc(Cl)c(Cl)c1` [Compound 4, N‐(3,4‐dichlorophenyl) mercaptoacetamide] returned a minimum inhibitory concentration (MIC) in the data set with P. aeruginosa PA14 (Pseudomonas aeruginosa) of over 100 µM. The “inhibition of MMP-1” value against MMP-1 was “n.i. (n.i. = <10% inhibition)”. The “inhibition of MMP-2” value against MMP-2 was “n.i. (n.i. = <10% inhibition)”. At MMP-3, the “inhibition of MMP-3” value is recorded as “n.i. (n.i. = <10% inhibition)”. Moreover, the “inhibition of MMP-7” value against MMP-7 was “n.i. (n.i. = <10% inhibition)”. At MMP-8, the “inhibition of MMP-8” value was “n.i. (n.i. = <10% inhibition)”. Moreover, on MMP-14, the “inhibition of MMP-14” value is on record as “n.i. (n.i. = <10% inhibition)”. For the same compound, the IC50 at ADAM17, against HDAC-3, against HDAC-8, in the data set “in vitro [7]”, in “in vitro [8]” and in the data set “in vitro [9]” was over 100 µM throughout. Also, in data set [4], the survival of larvae result is listed as “virtually no improvement in survival”. Further, the “survival of larvae, compound in PBS” value in [4] was 100%. Also, the reduction in viability in data set [10] is 23±3%; in data set [11], 33±10%.

Usually IC50 stands for the concentration at which inhibition is half-maximal. For orientation: MIC means the smallest concentration in the dilution series that meets the test's criterion for growth inhibition. Read a low MIC as greater potency.

The values are drawn from paper PMC9299988, “Substrate‐Inspired Fragment Merging and Growing Affords Efficacious LasB Inhibitors” (Angewandte Chemie (International Ed. in English), 2021).
